Test results published in patent US11274104B2, “Crystal forms of thiophene derivatives” (Tianjin Hemay Pharmaceutical Co., Ltd, priority 2018, dated 2022).

What was measured:
Assay type in all cases: physicochemical
[1] = High temperature stability (40° C., 1 month)
Experimental: (§1) Crystal form II of (S)—N-[5-[1-(3-ethoxy-4-methoxyphenyl)-2-(methylsulfonyl)ethyl]-4,6-dioxo-5,6-dihydro-4H-thieno[3,4-c]pyrrole-1-yl]acetamide prepared according to the process of Example 1 was placed at 40° C. (high temperature). After 1 month, liquid chromatogram and DSC were tested.

[2] = Accelerated stability (40° C., RH 75%, 1 month)
Experimental: as §1, with “placed in a stability text box” for “placed”, “and Rh=75%.” for “(high temperature).”

[3] = Illumination stability (4500 lux, 1 month); settings: liquid chromatogram
Experimental: as §1, with “in a 4500 lux of illumination box for” for “at 40° C. (high temperature). After”, “month. Liquid” for “month, liquid”, “tested after 1 month.” for “tested.”

Grinding stability = settings: grinding in a glass mortar for 5 minutes
Experimental: Crystal form II of (S)—N-[5-[1-(3-ethoxy-4-methoxyphenyl)-2-(methylsulfonyl)ethyl]-4,6-dioxo-5,6-dihydro-4H-thieno[3,4-c]pyrrole-1-yl]acetamide prepared according to the process of Example 1 was ground in a glass mortar for 5 minutes. The ground samples were tested with XRPD.

[4] = Pressure stability (tablet press); settings: single punch tablet press, tablet 6 mm, hardness 25-30 N; DSC (FIG. 5)
Experimental: Crystal form II of (S)—N-[5-[1-(3-ethoxy-4-methoxyphenyl)-2-(methylsulfonyl)ethyl]-4,6-dioxo-5,6-dihydro-4H-thieno[3,4-c]pyrrole-1-yl]acetamide was pressed by tablet press machine with single punch. The diameter of the tablet was 6 mm and the hardness was 25-30 N. DSC test was carried out on pressed powder.

Hygroscopicity (RH=80%) = test: Hygroscopicity (RH=80%)
Experimental: Hygroscopicity of crystal form II of (S)—N-[5-[1-(3-ethoxy-4-methoxyphenyl)-2-(methylsulfonyl)ethyl]-4,6-dioxo-5,6-dihydro-4H-thieno[3,4-c]pyrrole-1-yl]acetamide was studied. Crystal form II of (S)—N-[5-[1-(3-ethoxy-4-methoxyphenyl)-2-(methylsulfonyl)ethyl]-4,6-dioxo-5,6-dihydro-4H-thieno[3,4-c]pyrrole-1-yl]acetamide was placed in a drier containing saturated ammonium chloride solution (RH=80%) until weight was balanced. The crystal form was tested with XRPD.
Crystal form II of (S)—N-[5-[1-(3-ethoxy-4-methoxyphenyl)-2-(methylsulfonyl)ethyl]-4,6-dioxo-5,6-dihydro-4H-thieno[3,4-c]pyrrole-1-yl]acetamide prepared according to the process of Example 1 was tested.

[5] = day 0, before storage at 40° C., liquid chromatogram
[6] = storage at 40° C., 1 month, liquid chromatogram

With `CCOc1cc([C@@H](CS(C)(=O)=O)N2C(=O)c3csc(NC(C)=O)c3C2=O)ccc1OC` [crystal form II, (S)—N-[5-[1-(3-ethoxy-4-methoxyphenyl)-2-(methylsulfonyl)ethyl]-4,6-dioxo-5,6-dihydro-4H-thieno[3,4-c]pyrrole-1-yl]acetamide] the “stability under high temperature conditions (in words)” value ([1]; 40° C., 1 month) was “good stability”, the “Relevant Substance Contents at Day 0 (%)” value [1, 5] was 0.10% and the “Relevant Substance Contents after 1 Month (%)” value [1, 6] was 0.12%. The “stability under high-temperature and high-humidity conditions (in words)” value ([2]; 40° C., 1 month) was “good stability”, the “Relevant Substance Contents at Day 0 (%)” value [2, 5] was 0.11% and the “Relevant Substance Contents after 1 Month (%)” value [2, 6] was 0.11%. The “Relevant Substance Contents after 1 Month (%)” value ([3]; 4500 lux, 1 month) was 0.06%, the “Relevant Substance Contents at Day 0 (%)” value ([3]; day 0, before illumination at 4500 lux) was 0.06% and the “grinding stability (in words)” value (Grinding stability) was “good grinding stability”. The “pressure stability (in words)” value [4] was “good stability”, the “hygroscopicity (in words)” value (Hygroscopicity (RH=80%); RH=80%) was “hardly absorbed moisture” and the “Weight Increase” value (Hygroscopicity (RH=80%); RH=80% (saturated ammonium chloride solution) until weight balanced, mAPI 0.497 g) was -0.001 g. The “Moisture Absorption (%)” value (Hygroscopicity (RH=80%); RH=80% until weight balanced) was 0% and the “Crystal Form after Absorbing Moisture” value (Hygroscopicity (RH=80%); RH=80% until weight balanced, XRPD) was “did not change”.
